Tests used:
physchem = conditions: for Solubility in fluorinated solvents (in words): 3-fluorobenzonitrile and BTFE, useful concentrations e.g. >0.05 M; for Solubility vs. TMAF: in 3-fluorobenzonitrile, relative to TMAF; for solubility: organic solvent or mixture
Procedure: NpMe3NF is determined to be soluble in a given solvent if the concentration of NpMe3NF dissolved within the solvent is greater than 0.05 M.

[1] = NpMe3NF stability in various solvents by 1H and 19F NMR; type: physicochemical
Procedure: NpMe3NF stability in various solvents is analyzed by ^1H and ^19F NMR measurements. Preliminary criteria used for a solvent being “chemically stable” to the F^− ion are observation of a clear, sharp peak in the ^19F spectrum, alongside a 1:1:1 triplet arising from the DF2^− formation from the deuterated acetonitrile solvent (CD3CN).

[2] = in 2,6-difluoropyridine (2,6-F2Py)
[3] = in 3-methoxypropionitrile (3-MeOPN)

SMILES: CC(C)(C)C[N+](C)(C)CC(C)(C)C.[F-] [Np2Me2NF, bis(2,2-dimethylpropyl)dimethylammonium fluoride]
- Solubility in fluorinated solvents (in words) (physchem): significantly higher solubility
- Solubility vs. TMAF (physchem): >10x
- solubility (physchem): 340 mM

SMILES: CC(C)(C)C[N+](C)(C)C.[F-] [NpMe3NF, (2,2-dimethylpropyl)trimethylammonium fluoride]
- Stability (1H and 19F NMR) [1, 2]: good stability
- Stability (1H and 19F NMR) [1, 3]: poor stability
- Stability (1H and 19F NMR) ([1]; in BTFE): good stability
- Stability (1H and 19F NMR) ([1]; in Bis(2,2,2-trifluoroethyl) carbonate (BTFEC)): poor stability
- Stability (1H and 19F NMR) ([1]; in propionitrile (PN)): good stability
- Solubility in fluorinated solvents (in words) (physchem): significantly higher solubility
- Approximate Solubility (physchem; in 1,3-Dimethyl-3,4,5,6-tetrahydro-2(1H)-pyrimidinone (DMPU)): 110 mM
- Approximate Solubility (physchem; in 2,2,2-trifluoroethyl trifluoroacetate (TFE-TFA)): 950 mM
- Approximate Solubility (physchem; in 2,3-difluorobenzonitrile (2,3-F2BN)): 400 mM
- Approximate Solubility (physchem; [2]): 390 mM
- Approximate Solubility (physchem; in 2-fluorobenzonitrile (2-FBN)): 120 mM
- Approximate Solubility (physchem; in 3-fluorobenzonitrile (3-FBN)): 190 mM
- Solubility vs. TMAF (physchem): >6x
- Approximate Solubility (physchem; [3]): 780 mM
- Approximate Solubility (physchem; in (Dimethylamino)acetonitrile (DMAN)): 140 mM
- Approximate Solubility (physchem; in Fluoroethylene carbonate (FEC)): 710 mM
- Approximate Solubility (physchem; in Tris(2,2,2-trifluoroethyl)phosphite (TTFP)): 1050 mM
- Approximate Solubility (physchem; in methoxyacetonitrile (MeOAN)): 800 mM
- Approximate Solubility (physchem; in phenyl trifluoroacetate (PhTFA)): 470 mM
- Approximate Solubility (physchem; in propionitrile (PN)): 70 mM
- solubility (physchem): 190 mM
